Measurements as given in PubChem BioAssay AID342 (DTP/NCI, 2004).
Several values for one entry are separate records, joined by “and”; a condition that tells them apart may be missing. Equal values may be shown once.

Tested on: Swiss mice, Sarcoma 180 sc, mean tumor weight T/C
Test: NCI In Vivo Anticancer Drug Screen. Data for tumor model Sarcoma 180 (subcutaneous) in Swiss mice
Conditions: endpoint: mean tumor weight, higher = larger tumour
Outline: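 Transplantable tumors were established in mice, compound was given, then survival or tumor size was recorded. The treated value was divided by the vehicle-control value.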

[1] = dose: 14.0 mg/kg/injection, schedule: Q01DX007 (ip), vehicle: other
[2] = dose: 21.0 mg/kg/injection, schedule: Q01DX007 (ip), vehicle: other
[3] = dose: 125.0 mg/kg/injection, schedule: Q01DX007 (ip), vehicle: carboxymethylcellulose (CMC)
[4] = dose: 250.0 mg/kg/injection, schedule: Q01DX007 (ip), vehicle: carboxymethylcellulose (CMC)
[5] = dose: 500.0 mg/kg/injection, schedule: Q01DX007 (ip), vehicle: carboxymethylcellulose (CMC)
[6] = dose: 1000.0 mg/kg/injection, schedule: Q01DX007 (ip), vehicle: carboxymethylcellulose (CMC)
[7] = dose: 2.0 mg/kg/injection, schedule: Q01DX007 (ip), vehicle: saline

CCSCCC(N)C(=O)O (stereo not drawn) was tested, and the T/C (dose: 9.37 mg/kg/injection, schedule: Q#A X014 (ip), vehicle: carboxymethylcellulose (CMC)) was 80 % of control, the T/C (dose: 18.2 mg/kg/injection, schedule: Q01DX007 (ip), vehicle: carboxymethylcellulose (CMC)) was 115 % of control and the T/C (dose: 18.75 mg/kg/injection, schedule: Q#A X014 (ip), vehicle: carboxymethylcellulose (CMC)) was 116 % of control. The T/C (dose: 25.0 mg/kg/injection, schedule: Q01DX007 (ip), vehicle: carboxymethylcellulose (CMC)) was 102 % of control, the T/C (dose: 36.3 mg/kg/injection, schedule: Q01DX007 (ip), vehicle: carboxymethylcellulose (CMC)) was 98 % of control and the T/C (dose: 37.5 mg/kg/injection, schedule: Q#A X014 (ip), vehicle: carboxymethylcellulose (CMC)) was 40 % of control. The T/C (dose: 50.0 mg/kg/injection, schedule: Q01DX007 (ip), vehicle: carboxymethylcellulose (CMC)) was 80 % of control, the T/C (dose: 72.5 mg/kg/injection, schedule: Q01DX007 (ip), vehicle: carboxymethylcellulose (CMC)) was 77 % of control and the T/C (dose: 75.0 mg/kg/injection, schedule: Q#A X014 (ip), vehicle: carboxymethylcellulose (CMC)) was 36 % of control. For the same molecule, the T/C (dose: 90.0 mg/kg/injection, schedule: Q01DX007 (ip), vehicle: carboxymethylcellulose (CMC)) was 106 % of control, the T/C (dose: 100.0 mg/kg/injection, schedule: Q01DX007 (ip), vehicle: carboxymethylcellulose (CMC)) was 111 % of control and the T/C (dose: 108.0 mg/kg/injection, schedule: Q01DX007 (ip), vehicle: carboxymethylcellulose (CMC)) was 98 % of control. For the same molecule, the T/C (dose: 145.0 mg/kg/injection, schedule: Q01DX007 (ip), vehicle: carboxymethylcellulose (CMC)) was 108 % of control, the T/C (dose: 216.0 mg/kg/injection, schedule: Q01DX007 (ip), vehicle: carboxymethylcellulose (CMC)) was 107 % of control and the T/C (dose: 432.0 mg/kg/injection, schedule: Q01DX007 (ip), vehicle: carboxymethylcellulose (CMC)) was 47 % of control.

With [Cu+2].[O-]c1ccc(Br)c2cccnc12.[O-]c1ccc(Br)c2cccnc12 the T/C (dose: 4.2 mg/kg/injection, schedule: Q01DX007 (ip), vehicle: carboxymethylcellulose (CMC)) was 71 % of control, the T/C (dose: 6.2 mg/kg/injection, schedule: Q01DX007 (ip), vehicle: carboxymethylcellulose (CMC)) was 66 % of control and the T/C [1] was 63 % of control. The T/C [2] was 39 % of control and the T/C (dose: 32.0 mg/kg/injection, schedule: Q01DX007 (ip), vehicle: other) was 26 % of control.

With NC1C(O)C(O)C(Nc2ncnc3nc[nH]c23)OC1C(O)CO (stereo not drawn) the T/C (dose: 0.44 mg/kg/injection, schedule: Q## X000 (ip), vehicle: carboxymethylcellulose (CMC)) was 100 % of control, the T/C (dose: 0.66 mg/kg/injection, schedule: Q## X000 (ip), vehicle: carboxymethylcellulose (CMC)) was 66 % of control and the T/C (dose: 1.0 mg/kg/injection, schedule: Q## X000 (ip), vehicle: carboxymethylcellulose (CMC)) was 82 % of control. For the same molecule, the T/C (dose: 1.5 mg/kg/injection, schedule: Q## X000 (ip), vehicle: carboxymethylcellulose (CMC)) was 72 % of control.

For Nc1nc(SN=Nc2ccc(S(=O)(=O)O)cc2)c2[nH]cnc2n1, the T/C (dose: 1.75 mg/kg/injection, schedule: Q01DX007 (ip), vehicle: other) was 104 % of control, the T/C (dose: 3.5 mg/kg/injection, schedule: Q01DX007 (ip), vehicle: other) was 80 % of control and the T/C (dose: 6.0 mg/kg/injection, schedule: Q01DX007 (ip), vehicle: other) was 65 % of control. The T/C (dose: 7.0 mg/kg/injection, schedule: Q01DX007 (ip), vehicle: other) was 46 % of control, the T/C (dose: 9.0 mg/kg/injection, schedule: Q01DX007 (ip), vehicle: other) was 57 % of control and the T/C [1] was 18 % of control and 27 % of control and 33 % of control. For the same molecule, the T/C [2] was 1 % of control and 14 % of control.

CC1NC(=O)NC1CCCCCC(=O)O (stereo not drawn) was tested, and the T/C [3] was 103 % of control, the T/C [4] was 73 % of control and the T/C [5] was 122 % of control. For the same molecule, the T/C [6] was 105 % of control.

With Cc1ccc2[nH]c(C)c(CCN)c2c1 the T/C (dose: 44.0 mg/kg/injection, schedule: Q01DX007 (ip), vehicle: water) was 95 % of control, the T/C (dose: 66.0 mg/kg/injection, schedule: Q01DX007 (ip), vehicle: water) was 119 % of control and the T/C (dose: 100.0 mg/kg/injection, schedule: Q01DX007 (ip), vehicle: water) was 97 % of control.

In the case of COC(=O)c1ccccc1NC(c1ccccn1)c1ccc2cccnc2c1O (stereo not drawn), the T/C (dose: 62.0 mg/kg/injection, schedule: Q01DX007 (ip), vehicle: carboxymethylcellulose (CMC)) was 115 % of control, the T/C [3] was 104 % of control and the T/C [4] was 88 % of control. For the same molecule, the T/C [5] was 88 % of control.

With C[C@]12CCC(=O)C=C1CC[C@@H]1[C@@H]2[C@@H](O)C[C@@]2(C)[C@H]1CC[C@]2(O)C(=O)COC(=O)c1ccc([N+](=O)[O-])cc1Cl the T/C (dose: 12.5 mg/kg/injection, schedule: Q#A X014 (sc), vehicle: steriod suspending solution) was 79 % of control, the T/C (dose: 25.0 mg/kg/injection, schedule: Q#A X014 (sc), vehicle: steriod suspending solution) was 67 % of control and the T/C (dose: 50.0 mg/kg/injection, schedule: Q#A X014 (sc), vehicle: steriod suspending solution) was 38 % of control. For the same molecule, the T/C (dose: 100.0 mg/kg/injection, schedule: Q#A X014 (sc), vehicle: steriod suspending solution) was 32 % of control.

With O=C(CBr)c1ccc(Br)cc1 the T/C (dose: 7.5 mg/kg/injection, schedule: Q01DX007 (ip), vehicle: other) was 63 % of control, the T/C (dose: 15.0 mg/kg/injection, schedule: Q01DX007 (ip), vehicle: other) was 49 % of control and 73 % of control and the T/C (dose: 20.0 mg/kg/injection, schedule: Q01DX007 (ip), vehicle: other) was 42 % of control.

With O=CN(O)CC(=O)O the T/C (dose: 62.5 mg/kg/injection, schedule: Q01DX007 (ip), vehicle: carboxymethylcellulose (CMC)) was 105 % of control, the T/C [4] was 83 % of control and the T/C [5] was 84 % of control. For the same molecule, the T/C (dose: 750.0 mg/kg/injection, schedule: Q01DX007 (ip), vehicle: carboxymethylcellulose (CMC)) was 62 % of control and the T/C [6] was 61 % of control.

In the case of C/C=C(/C)C(=O)O[C@H]1CCN2CC=C(COC(=O)[C@@](O)([C@H](C)OC)C(C)(C)O)[C@H]12, the T/C (dose: 12.0 mg/kg/injection, schedule: Q01DX007 (ip), vehicle: carboxymethylcellulose (CMC)) was 117 % of control, the T/C (dose: 18.0 mg/kg/injection, schedule: Q01DX007 (ip), vehicle: carboxymethylcellulose (CMC)) was 73 % of control and the T/C (dose: 26.6 mg/kg/injection, schedule: Q01DX007 (ip), vehicle: carboxymethylcellulose (CMC)) was 48 % of control. For the same molecule, the T/C (dose: 40.0 mg/kg/injection, schedule: Q01DX007 (ip), vehicle: carboxymethylcellulose (CMC)) was 40 % of control.

With O=C(Nc1ccc(NC2=NCCN2)cc1)c1ccc(C(=O)Nc2ccc(NC3=NCCN3)cc2)cc1 the T/C [7] was 109 % of control, the T/C (dose: 4.0 mg/kg/injection, schedule: Q01DX007 (ip), vehicle: saline) was 95 % of control and the T/C (dose: 8.0 mg/kg/injection, schedule: Q01DX007 (ip), vehicle: saline) was 97 % of control. The T/C (dose: 16.0 mg/kg/injection, schedule: Q01DX007 (ip), vehicle: saline) was 43 % of control.

CCCCCCC(=O)NC1=C(N2CC2)C(=O)C(NC(=O)CCCCCC)=C(N2CC2)C1=O was tested, and the T/C (dose: 27.75 mg/kg/injection, schedule: Q#A X014 (ip), vehicle: methylcellulose (MC)) was 42 % of control and 50 % of control and 56 % of control, the T/C (dose: 41.5 mg/kg/injection, schedule: Q#A X014 (ip), vehicle: methylcellulose (MC)) was 38 % of control and 50 % of control and 53 % of control and the T/C (dose: 62.5 mg/kg/injection, schedule: Q#A X014 (ip), vehicle: methylcellulose (MC)) was 31 % of control.

For O=C(NCCCCCCCCCCNC(=O)N1CC1)N1CC1, the T/C (dose: 0.9 mg/kg/injection, schedule: Q01DX007 (ip), vehicle: carboxymethylcellulose (CMC)) was 66 % of control and 83 % of control, the T/C (dose: 0.9 mg/kg/injection, schedule: Q01DX007 (ip), vehicle: saline) was 70 % of control and the T/C (dose: 1.3 mg/kg/injection, schedule: Q01DX007 (ip), vehicle: carboxymethylcellulose (CMC)) was 64 % of control and 65 % of control. The T/C (dose: 1.3 mg/kg/injection, schedule: Q01DX007 (ip), vehicle: saline) was 67 % of control, the T/C (dose: 2.0 mg/kg/injection, schedule: Q01DX007 (ip), vehicle: carboxymethylcellulose (CMC)) was 35 % of control and 43 % of control and the T/C [7] was 48 % of control. For the same molecule, the T/C (dose: 3.0 mg/kg/injection, schedule: Q01DX007 (ip), vehicle: carboxymethylcellulose (CMC)) was 10 % of control and 21 % of control, the T/C (dose: 3.0 mg/kg/injection, schedule: Q01DX007 (ip), vehicle: saline) was 34 % of control and the T/C (dose: 4.0 mg/kg/injection, schedule: Q01DX007 (ip), vehicle: carboxymethylcellulose (CMC)) was 38 % of control.

With O=C(Nc1ccc([N+](=O)[O-])cc1)Nc1ccc([N+](=O)[O-])cc1 (tested in a mixture with another compound) the T/C (dose: 37.0 mg/kg/injection, schedule: Q#A X014 (ip), vehicle: methylcellulose (MC)) was 59 % of control, the T/C (dose: 55.5 mg/kg/injection, schedule: Q#A X014 (ip), vehicle: methylcellulose (MC)) was 60 % of control and the T/C (dose: 187.5 mg/kg/injection, schedule: Q#A X014 (ip), vehicle: methylcellulose (MC)) was 53 % of control and 50 % of control and 52 % of control. The T/C (dose: 250.0 mg/kg/injection, schedule: Q#A X014 (ip), vehicle: methylcellulose (MC)) was 44 % of control.
